Where “and” joins values, the source holds several entries; their conditions need not be identical. Equal entries are not always repeated. Calls of active or inactive are those of the source.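 How the source made its calls: active means compounds reducing cell viability with a fitted AC50 at or below twice their top valid dose; inconclusive means flat curve between -70% and -30%, or an unreliable fit; inactive means the rest.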
Tested on: ldlA[mSR-BI] CHO cells viability, CellTiter-Glo ATP, 24 h
Test: cell viability loss, ATP luminescence – CellTiter-Glo, 24 h, powder samples, set 7, cytotoxicity control for SR-BI HDL uptake inhibitor project, dose response (AID 624026)
Details: not given

SMILES	AC50
C=CCOC(=O)N(C)C[C@@H]1Oc2ccc(NC(=O)OCC3c4ccccc4-c4ccccc43)cc2C(=O)N([C@H](C)CO)C[C@H]1C	> 70 µM (inactive)
C=CCOC(=O)N(C)C[C@@H]1Oc2ccc(NC(=O)NC(C)C)cc2C(=O)N([C@H](C)CO[Si](C)(C)C(C)(C)C)C[C@H]1C	21.6 µM
C=CCOC(=O)N(C)C[C@@H]1Oc2ccc(N)cc2C(=O)N([C@H](C)CO[Si](C)(C)C(C)(C)C)C[C@H]1C	> 70 µM (inactive)
CC(C)NC(=O)Nc1ccc2c(c1)C(=O)N([C@H](C)CO)C[C@@H](C)[C@H](CN(C)S(=O)(=O)c1ccc(Cl)cc1)O2	> 70 µM (inactive)

Tested on: not listed separately
Test: as above
Details: ldlA[mSR-BI] CHO cells viability, CellTiter-Glo ATP, 24 h; at 35 µM (top of the series)

SMILES	activity change, negative = cytotoxicity
C[C@@H]1CN([C@H](C)CO)C(=O)c2cc(NC(=O)C3CCCCC3)ccc2O[C@H]1CN(C)S(=O)(=O)c1ccccc1Cl	2.46% (inactive)
C[C@@H]1CN([C@H](C)CO)C(=O)c2cc(NC(=O)Cc3cn(C)c4ccccc34)ccc2O[C@H]1CN(C)S(=O)(=O)c1ccc(Cl)cc1	-1.59% (inactive)
C[C@@H]1CN([C@H](C)CO)C(=O)c2cc(NC(=O)Cc3cn(C)c4ccccc34)ccc2O[C@H]1CN(C)S(=O)(=O)c1ccc(F)cc1	12.8% (inactive)
CNC[C@@H]1Oc2ccc(NC(=O)NC(C)C)cc2C(=O)N([C@H](C)CO[Si](C)(C)C(C)(C)C)C[C@H]1C	0.137% (inactive)
O=C(O)CC(C(=O)Nc1cccc(C(F)(F)F)c1)C1CCCO1 (configuration not stated)	1.15% (inactive)
COc1ccc2c(c1)CC(C1(O)C(=O)N(C)c3ccccc31)C2=O (configuration not stated)	-4.38% (inactive)
CC(C)NC(=O)Nc1ccc2c(c1)C(=O)N([C@@H](C)CO)C[C@@H](C)[C@H](CN(C)S(=O)(=O)c1ccc(Cl)cc1)O2	0.1% (inactive)
C[C@@H]1CN([C@H](C)CO)C(=O)c2cc(NC(=O)C3CCCCC3)ccc2O[C@H]1CN(C)S(=O)(=O)c1cccc(Cl)c1	-12.5% (inactive)
CC(C)NC(=O)Nc1ccc2c(c1)C(=O)N([C@@H](C)CO)C[C@H](C)[C@H](CN(C)S(=O)(=O)c1ccc(Cl)cc1)O2	6.98% (inactive)
CC(C)NC(=O)Nc1ccc2c(c1)CC(=O)N([C@H](C)CO)C[C@@H](C)[C@H](CN(C)S(=O)(=O)c1ccc(Cl)cc1)O2	8.33% (inactive)
C[C@@H]1CN([C@H](C)CO)C(=O)c2cc(NC(=O)C3CCCCC3)ccc2O[C@H]1CN(C)S(=O)(=O)c1ccc(Cl)cc1	0.365% (inactive)
CCOc1cc2c3c(c1)C1(C(=O)N3C(C)(C)CC2C)C(C#N)=C(N)N2C(=C1C#N)Nc1ccccc12 (configuration not stated)	-18.2% (inactive)
CC(C)NC(=O)Nc1ccc2c(c1)C(=O)N([C@@H](C)CO)C[C@@H](C)[C@@H](CN(C)S(=O)(=O)c1ccc(Cl)cc1)O2	12.2% (inactive)
CC(C)NC(=O)Nc1ccc2c(c1)C(=O)N([C@H](C)CO)C[C@H](C)[C@H](CN(C)S(=O)(=O)c1ccc(Cl)cc1)O2	1.21% (inactive)
CC(C)NC(=O)Nc1ccc2c(c1)C(=O)N([C@H](C)CO)C[C@@H](C)[C@H](CN(C)S(=O)(=O)c1ccc(Cl)cc1)O2	10.4% (inactive) and 2.32% (inactive)
CC(C)NC(=O)Nc1ccc2c(c1)C(=O)N([C@H](C)CO[Si](C)(C)C(C)(C)C)C[C@@H](C)[C@H](CN(C)S(=O)(=O)c1ccc(Cl)cc1)O2	2% (inactive)
C[C@H](C(=O)NC1CCCC1)N(C(=O)Cn1nnc(-c2ccc3c(c2)OCO3)n1)C1CCCCC1	-3.33% (inactive)
C[C@@H]1CN([C@H](C)CO[Si](C)(C)C(C)(C)C)C(=O)c2cc(NC(=O)C3CCCCC3)ccc2O[C@H]1CN(C)C(=O)c1ccc(Cl)cc1	1.39% (inactive)
COc1c(NC(=O)C(=O)c2ccc(OCCN3CCOCC3)c3ccccc23)cc(C(C)(C)C)cc1NS(C)(=O)=O	-29.9% (inactive)
C[C@@H]1CN([C@H](C)CO)C(=O)c2cc(NC(=O)C3CCCCC3)ccc2O[C@H]1CN(C)C(=O)c1ccc(Cl)cc1	-8.49% (inactive)
Cc1noc(C)c1S(=O)(=O)Nc1ccc2c(c1)C(=O)N([C@H](C)CO)C[C@@H](C)[C@H](CN(C)S(=O)(=O)c1ccc(Cl)cc1)O2	2.07% (inactive)
CC(C)NC(=O)Nc1cccc2c1O[C@@H](CN(C)S(=O)(=O)c1ccc(Cl)cc1)[C@H](C)CN([C@H](C)CO)C2=O	3.81% (inactive)
O=C1C2C3C=CC(C3)C2C(=O)N1c1cccc(N2C(=O)C3C4C=CC(C4)C3C2=O)n1 (configuration not stated)	-1.42% (inactive)
Cc1ccc(OCc2cc(C(=O)N3CCCC(O)C3)no2)cn1 (configuration not stated)	-3.58% (inactive)
COCC(=O)N1CCc2cc(-c3csc(NC(=O)c4cc(OC)cc(OC)c4)n3)ccc21	3.29% (inactive)
CC(C)CN(C(=O)COC(=O)C12CC3CC(CC(O)(C3)C1)C2)C1CCS(=O)(=O)C1 (configuration not stated)	-5.18% (inactive)
CC(C)NC(=O)Nc1ccc2c(c1)C(=O)N([C@H](C)CO)C[C@@H](C)[C@@H](CN(C)S(=O)(=O)c1ccc(Cl)cc1)O2	4.21% (inactive)
C[C@@H]1CN([C@H](C)CO)C(=O)c2cc(NC(=O)C3CCOCC3)ccc2O[C@H]1CN(C)S(=O)(=O)c1ccc(Cl)cc1	-3.51% (inactive)
